From paper PMC6333288, “The crystal structure of the N-acetylglucosamine 2-epimerase from Nostoc sp. KVJ10 reveals the true dimer” (Acta Crystallographica. Section D, Structural Biology, 2019)
One block for each molecule: values may come before it.

Assays:
nAGE10 = molecular target: T1, nAGE10 (Nostoc sp. KVJ10, UniProt A0A452CSU8); assay: coupled AGE/NAL (AsNAL) reaction, Neu5Ac by thiobarbituric acid assay; assay type: biochemical; conditions: HEPES pH 8.0, 25 °C, 1 h
T1 construct: synthetic codon-optimised gene, C-terminal hexahistidine tag (no cleavage described), expressed in E. coli BL21 Star (DE3); dimer by gel filtration; residues Tyr3-Leu391 resolved, 157-164 missing
T1 sequence (A0A452CSU8 entry or part of it): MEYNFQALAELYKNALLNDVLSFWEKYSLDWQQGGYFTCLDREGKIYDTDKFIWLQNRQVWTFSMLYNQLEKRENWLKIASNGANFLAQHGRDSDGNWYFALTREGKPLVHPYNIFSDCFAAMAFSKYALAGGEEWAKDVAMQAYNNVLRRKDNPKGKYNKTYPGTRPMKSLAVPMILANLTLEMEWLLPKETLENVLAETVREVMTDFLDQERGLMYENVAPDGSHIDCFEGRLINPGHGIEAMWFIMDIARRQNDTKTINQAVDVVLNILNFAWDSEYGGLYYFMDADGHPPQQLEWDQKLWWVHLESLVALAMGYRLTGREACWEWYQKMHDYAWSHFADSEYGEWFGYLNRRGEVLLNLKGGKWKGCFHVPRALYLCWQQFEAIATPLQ

[1] = molecular target: N-acetylglucosamine 2-epimerase from Nostoc sp. KVJ10 (Nostoc sp. KVJ10); assay: SEC; gel-filtration chromatography on a Superdex 75 10/300 GL column; oligomerization state of purified nAGE10

Molecule: Nc1ncnc2c1ncn2[C@@H]1O[C@H](COP(=O)(O)OP(=O)(O)OP(=O)(O)O)[C@@H](O)[C@H]1O [ATP]
coupled AGE/NAL (AsNAL) reaction, Neu5Ac by thiobarbituric acid assay (nAGE10; 10 mM ATP present versus absent, GlcNAc 15 mM, pyruvate 15 mM, allosteric activator): In the absence of ATP, only a fraction of Neu5Ac could be synthetized from GlcNAc

Molecule: CC(=O)N[C@H]1C(O)O[C@H](CO)[C@@H](O)[C@@H]1O (stereo partly drawn) [GlcNAc]
coupled AGE/NAL (AsNAL) reaction, Neu5Ac by thiobarbituric acid assay (nAGE10; 15 mM GlcNAc, 10 mM ATP, 15 mM pyruvate): The results show that the synthesis of Neu5Ac from GlcNAc is possible

stoichiometry N [1]: 2
Molecule: N-acetylglucosamine 2-epimerase from Nostoc sp. KVJ10 (enzyme)
